Source: patent US6218102A, “Synthetic peptides and mixtures thereof for detecting HIV antibodies” (priority 1988, dated 2001)
Ends that are not written are not given here. Peptide text beside a SMILES is read from it.

Assays:
Antibodies to HIV-1 [1] = experiment: ELISA, relative performance of cyclic and non-cyclic HIV-1 peptides at serum dilutions (optical density); format: binding, human
Protocol: Table 4 is provided to illustrate the sensitivity of cyclic versus non cyclic peptides in the ELISA test by comparing the results of some sera at various dilutions.
(§1) Each well of the microtiter plate is saturated with 100 μl of a solution containing a peptide or mixture of peptides (5 μg/ml) and left overnight. The wells are emptied and washed twice with a washing buffer (Tris, 0.043M; NaCl, 0.5M; thimerosal, 0.01% w/v; Tween 20, 0.05% v/v; pH7.4). The wells are then saturated with 0.35 ml of washing buffer for 1 hr. at 37° C. and washed once with the same buffer. Serum samples to be analyzed are diluted with specimen buffer (washing buffer plus casein, 0.05% w/v). The wells are rinsed with washing buffer prior to the addition of the diluted serum sample (0.1 ml). These are left to incubate for 1 hr. at room temperature. The wells are then emptied, washed twice rapidly and then once for two minutes with washing buffer. […] The wells are then emptied and washed twice rapidly with washing buffer and then five times in which the buffer was in contact with the well 2 minutes per washing. The substrate solution (3,3', 5,5'-tetramethylbenzidine, 8 mg per ml of DMSO) is diluted with 100 volumes 0.1M citrate-acetate buffer, pH 5.6 containing 0.1% v/v of 30% H2 O2 and added to each well (0.1 ml per well). After 10 minutes the contents of each well is treated with 0.1 ml 2N H2 SO4 and the optical density read at 450 nm. All determinations are done in duplicate.

Antibodies to HIV-1 [2] = experiment: ELISA with peptide or peptide mixture as antigen, identifying HIV-1 positive sera; format: binding, human; details: Table 3
Protocol: According to this test a peptide or a peptide mixture of the present invention is adsorbed onto the wells of a microtiter plate. The wells are then treated with sera to be tested. After washing, anti-human IgG labeled with peroxidase is added to the wells. The determination of the peroxidase is performed with a corresponding substrate, e.g. with o-phenylene diamine. Also in this procedure the peroxidase can be exchanged by another label, e.g. by a radioactive or fluorescence label.
as §1

[3] = single peptide, known HIV-1 positive sera
[4] = single p 24 peptide, Free, HIV-1 positive sera
[5] = single p 24 peptide, coupled, HIV-1 positive sera

Question: How did the ELISA optical density (Antibodies to HIV-1 [1]; serum specimen 87V103, dilution 1/50) turn out when `CC[C@H](C)[C@H](NC(=O)CNC(=O)[C@H](CC(C)C)NC(=O)[C@H](CC(C)C)NC(=O)[C@H](CCC(N)=O)NC(=O)[C@H](CCC(N)=O)NC(=O)[C@H](CC(=O)O)NC(=O)[C@H](CCCCN)NC(=O)[C@H](CC(C)C)NC(=O)[C@H](Cc1ccc(O)cc1)NC(=O)[C@H](CCCNC(=N)N)NC(=O)[C@H](CCC(=O)O)NC(=O)[C@@H](NC(=O)[C@H](C)NC(=O)[C@H](CC(C)C)NC(=O)[C@@H](NC(=O)[C@@H](N)CCCNC(=N)N)[C@@H](C)CC)C(C)C)C(=O)N[C@@H](Cc1c[nH]c2ccccc12)C(=O)NCC(=O)N[C@H]1CSSC[C@@H](C(=O)N[C@H](C(=O)N[C@H](C(=O)N[C@@H](C)C(=O)N[C@H](C(=O)N2CCC[C@H]2C(=O)N[C@@H](Cc2c[nH]c3ccccc23)C(=O)N[C@@H](CC(N)=O)C(=O)N[C@@H](C)C(=O)N[C@@H](CO)C(=O)O)C(C)C)[C@@H](C)O)[C@@H](C)O)NC(=O)[C@H]([C@@H](C)CC)NC(=O)[C@H](CC(C)C)NC(=O)[C@H](CCCCN)NC(=O)CNC(=O)[C@H](CO)NC1=O` [Peptide 87c] (HELM PEPTIDE1{R.I.L.A.V.E.R.Y.L.K.D.Q.Q.L.L.G.I.W.G.C.S.G.K.L.I.C.T.T.A.V.P.W.N.A.S}$PEPTIDE1,PEPTIDE1,20:R3-26:R3$$$V2.0) was run?
Answer: 0.011 OPTICAL DENSITY UNITS

Question: What about the ELISA optical density (Antibodies to HIV-1 [1]; serum specimen 1428, dilution 1/50) of the same compound?
Answer: > 2.0 OPTICAL DENSITY UNITS

Question: What about the ELISA optical density (Antibodies to HIV-1 [1]; serum specimen M-5, dilution 1/50) of the same compound?
Answer: > 2.0 OPTICAL DENSITY UNITS

Question: And the ELISA optical density (Antibodies to HIV-1 [1]; serum specimen M-5, dilution 1/100)?
Answer: > 2.0 OPTICAL DENSITY UNITS

Question: And the ELISA optical density (Antibodies to HIV-1 [1]; serum specimen M-5, dilution 1/200)?
Answer: > 2.0 OPTICAL DENSITY UNITS

Question: And the ELISA optical density (Antibodies to HIV-1 [1]; serum specimen M-5, dilution 1/400)?
Answer: > 2.0 OPTICAL DENSITY UNITS

Question: What about the ELISA optical density (Antibodies to HIV-1 [1]; serum specimen M-5, dilution 1/800) of the same compound?
Answer: 1.854 OPTICAL DENSITY UNITS

Question: And the ELISA optical density (Antibodies to HIV-1 [1]; serum specimen M-7, dilution 1/50)?
Answer: > 2.0 OPTICAL DENSITY UNITS

Question: And the ELISA optical density (Antibodies to HIV-1 [1]; serum specimen M-7, dilution 1/100)?
Answer: > 2.0 OPTICAL DENSITY UNITS

Question: And the ELISA optical density (Antibodies to HIV-1 [1]; serum specimen M-7, dilution 1/200)?
Answer: 1.729 OPTICAL DENSITY UNITS

Question: What about the ELISA optical density (Antibodies to HIV-1 [1]; serum specimen M-7, dilution 1/400) of the same compound?
Answer: 1.348 OPTICAL DENSITY UNITS

Question: What about the ELISA optical density (Antibodies to HIV-1 [1]; serum specimen M-7, dilution 1/800) of the same compound?
Answer: 0.611 OPTICAL DENSITY UNITS

Question: What about the ELISA optical density (Antibodies to HIV-1 [1]; serum specimen M-8, dilution 1/50) of the same compound?
Answer: > 2.0 OPTICAL DENSITY UNITS

Question: And the ELISA optical density (Antibodies to HIV-1 [1]; serum specimen M-8, dilution 1/100)?
Answer: > 2.0 OPTICAL DENSITY UNITS

Question: What about the ELISA optical density (Antibodies to HIV-1 [1]; serum specimen M-8, dilution 1/200) of the same compound?
Answer: 1.655 OPTICAL DENSITY UNITS

Question: And the ELISA optical density (Antibodies to HIV-1 [1]; serum specimen M-8, dilution 1/400)?
Answer: 1.064 OPTICAL DENSITY UNITS

Question: And the ELISA optical density (Antibodies to HIV-1 [1]; serum specimen M-8, dilution 1/800)?
Answer: 0.384 OPTICAL DENSITY UNITS

Question: And the ELISA optical density (Antibodies to HIV-1 [1]; serum specimen M-16, dilution 1/50)?
Answer: > 2.0 OPTICAL DENSITY UNITS

Question: What about the ELISA optical density (Antibodies to HIV-1 [1]; serum specimen M-16, dilution 1/100) of the same compound?
Answer: > 2.0 OPTICAL DENSITY UNITS

Question: What about the ELISA optical density (Antibodies to HIV-1 [1]; serum specimen M-16, dilution 1/200) of the same compound?
Answer: > 2.0 OPTICAL DENSITY UNITS

Question: And the ELISA optical density (Antibodies to HIV-1 [1]; serum specimen M-16, dilution 1/400)?
Answer: > 2.0 OPTICAL DENSITY UNITS

Question: What about the ELISA optical density (Antibodies to HIV-1 [1]; serum specimen M-16, dilution 1/800) of the same compound?
Answer: 1.962 OPTICAL DENSITY UNITS

Question: And the “% Positive Sera Correctly Identified” value (Antibodies to HIV-1 [2]; [3])?
Answer: 99%

Question: Which “% Positive Sera Correctly Identified” value (Antibodies to HIV-1 [2]; [3]) does the source give for GHACVPTDPNPQEVVL [Peptide 14] here?
Answer: 50%

Question: Which “% Positive Sera Correctly Identified” value (Antibodies to HIV-1 [2]; [3]) does the source give for TTAVPWNASWSNKSLEQGC [Peptide 42] here?
Answer: 5%

Question: With “CGRAEQASQEVKN [Peptide 46, NH2 -CGRAEQASQEVKN-COOH]” as the compound, how does the “% Positive Sera Correctly Identified” value (Antibodies to HIV-1 [2]; [4]) read?
Answer: 0%

Question: What about the “% Positive Sera Correctly Identified” value (Antibodies to HIV-1 [2]; [5]) of the same compound?
Answer: 93%

Question: For “NH2 -SGKLICTTAVPWNASWSNKSLEQGC-COOH [Peptide 56]”, which “% Positive Sera Correctly Identified” value (Antibodies to HIV-1 [2]; [3]) is on record?
Answer: 100%

Question: With “NH2 -VERYLKDQQLLGIWGCSGKLICTTAVPWNAS-COOH (H-VERYLKDQQLLGIWGCSGKLICTTAVPWNAS-OH; cysteine pairing not given here) [Peptide 81, gp 41 590-620]” as the compound, how does the “% Positive Sera Correctly Identified” value (Antibodies to HIV-1 [2]; [3]) read?
Answer: 100%

Question: With “NH2 -CGVERYLKQQLLGIWGCSGKLICTTAVPWNASWSNKSLEQI-COOH [Peptide 99]” as the compound, how does the “% Positive Sera Correctly Identified” value (Antibodies to HIV-1 [2]; [3]) read?
Answer: 100%

Question: With “CGNNPPIPVGE [Peptide 41, NH2 -CGNNPPIPVGE-COOH]” as the compound, how does the “% Positive Sera Correctly Identified” value (Antibodies to HIV-1 [2]; [4]) read?
Answer: 63%

Question: What about the “% Positive Sera Correctly Identified” value (Antibodies to HIV-1 [2]; [5]) of the same compound?
Answer: 73%

Question: For “NH2 -GCSGKLICTTAVPWNASWSWSNKSLEQI-COOH [Peptide 95]”, which “% Positive Sera Correctly Identified” value (Antibodies to HIV-1 [2]; [3]) is on record?
Answer: 100%
